Data taken from patent US12428370B2, “Haloallylamine dual amine oxidase inhibitors” (Syntara Limited, priority 2020, dated 2025).
pIC50: −log10 of the molar value.

How the values were obtained:
[1] = molecular target: T1, human recombinant SSAO/VAP-1 (Homo sapiens, UniProt Q16853); experiment: Inhibition of human recombinant SSAO/VAP-1 (Amplex Red fluorometric assay); format: biochemical; details: 30 min incubation, 37° C., benzylamine substrate
T1 construct: a cloned cDNA template corresponding to residues 34-763 of human SSAO/VAP-1; TEV cleavage site (N); made in house
T1 sequence (Q16853 34-763): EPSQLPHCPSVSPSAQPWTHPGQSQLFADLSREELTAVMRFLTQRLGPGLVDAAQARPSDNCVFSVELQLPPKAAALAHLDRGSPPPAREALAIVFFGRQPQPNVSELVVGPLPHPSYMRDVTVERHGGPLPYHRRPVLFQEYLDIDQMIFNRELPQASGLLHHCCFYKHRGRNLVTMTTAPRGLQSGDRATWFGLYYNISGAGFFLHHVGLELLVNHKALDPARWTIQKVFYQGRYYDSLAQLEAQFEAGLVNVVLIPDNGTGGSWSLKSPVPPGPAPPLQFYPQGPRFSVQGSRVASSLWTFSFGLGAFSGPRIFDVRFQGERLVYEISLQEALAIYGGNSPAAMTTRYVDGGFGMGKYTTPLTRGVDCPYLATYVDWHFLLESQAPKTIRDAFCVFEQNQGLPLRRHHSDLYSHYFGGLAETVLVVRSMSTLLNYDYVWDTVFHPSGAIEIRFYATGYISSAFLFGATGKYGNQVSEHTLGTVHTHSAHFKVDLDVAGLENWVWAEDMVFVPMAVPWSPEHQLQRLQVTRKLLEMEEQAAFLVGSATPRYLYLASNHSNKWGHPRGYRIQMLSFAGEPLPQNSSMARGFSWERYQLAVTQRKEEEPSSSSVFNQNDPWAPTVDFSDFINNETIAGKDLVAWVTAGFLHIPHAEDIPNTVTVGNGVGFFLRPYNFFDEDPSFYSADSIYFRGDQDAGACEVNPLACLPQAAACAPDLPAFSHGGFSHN
Procedure: Method to Determine the Ability of Compounds of Formula I to Inhibit Human Recombinant SSAO/VAP-1
Human recombinant SSAO/VAP-1 amine oxidase activity was determined using the method as described for monoamine oxidase, copper-containing amine oxidases and related enzymes (Holt A. and Palcic M., Nat. Protoc. 2006, 1, 2498-2505). Briefly, a cloned cDNA template corresponding to residues 34-763 of human SSAO/VAP-1, and incorporating a mouse Ig kappa (κ) signal sequence, N-terminal flag epitope tag and tobacco etch virus (TEV) cleavage site, was assembled in a mammalian expression vector (pLO-CMV) by Geneart AG. This vector containing human SSAO/VAP-1 residues was transfected into CHO-K1 glycosylation mutant cell line, Lec 8. A clone stably expressing human SSAO/VAP-1 was isolated and cultured in large scale. Active human SSAO/VAP-1 was purified and recovered using immunoaffinity chromatography. This was used as the source for SSAO/VAP-1 activity. A high-throughput colorimetric assay was developed using either 96 or 384 well format. Briefly, in a standard 96 well plate assay 50 μL of purified human SSAO/VAP-1 (0.25 μg/mL) in 0.1 M sodium phosphate buffer (pH 7.4) was added into each well. […] After 30 min incubation, 50 μL of the reaction mixture containing 600 μM benzylamine (Sigma Aldrich), 120 μM Amplex Red (Sigma Aldrich) and 1.5 U/mL horseradish peroxidase (Sigma Aldrich) prepared in 0.1 M sodium phosphate buffer (pH 7.4) were added to the corresponding well. The fluorescence unit (RFU) was read every 2.5 min for 30 min at 37° C. excitation 565 nm and emission 590 nm (Optima; BMG labtech). The slope of the kinetics for each well was calculated using MARS data analysis software (BMG labtech) and this value was used to deduce the IC50 value (Dotmatics).

[2] = molecular target: T2, Recombinant human MAO-B (Homo sapiens, UniProt P27338); experiment: Inhibition of human recombinant MAO-B; format: biochemical; details: incubation time of 2 hours, benzylamine 100 μM
T2 construct: purchased Sigma Aldrich
T2 sequence (P27338 1-520): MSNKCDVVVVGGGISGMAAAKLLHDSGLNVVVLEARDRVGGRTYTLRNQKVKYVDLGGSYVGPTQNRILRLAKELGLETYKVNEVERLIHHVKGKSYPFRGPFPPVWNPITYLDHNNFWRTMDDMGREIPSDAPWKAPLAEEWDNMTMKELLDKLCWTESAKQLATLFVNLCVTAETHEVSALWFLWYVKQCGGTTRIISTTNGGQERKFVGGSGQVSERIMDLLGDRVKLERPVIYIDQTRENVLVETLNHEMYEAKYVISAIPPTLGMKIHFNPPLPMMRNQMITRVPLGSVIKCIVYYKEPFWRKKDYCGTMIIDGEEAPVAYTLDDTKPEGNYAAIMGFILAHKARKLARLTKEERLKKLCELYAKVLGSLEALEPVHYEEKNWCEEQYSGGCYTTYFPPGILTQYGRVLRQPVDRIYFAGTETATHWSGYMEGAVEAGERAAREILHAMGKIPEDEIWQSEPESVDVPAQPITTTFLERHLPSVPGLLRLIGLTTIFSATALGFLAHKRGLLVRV
Procedure: Method to Determine the Ability of Compounds of Formula I to Inhibit Human Recombinant MAO-B
The ability of the compounds of this invention to inhibit MAO-B activities in vitro was tested. Recombinant human MAO-B (0.06 mg/mL; Sigma Aldrich) was used as source of MAO-B enzyme activities.

[3] = molecular target: T3, recombinant human MAO-A (Homo sapiens, UniProt P21397); experiment: Inhibition of human recombinant MAO-A; format: biochemical; details: incubation time of 2 hours, tyramine 100 μM
T3 construct: purchased Sigma Aldrich
T3 sequence (P21397 1-527): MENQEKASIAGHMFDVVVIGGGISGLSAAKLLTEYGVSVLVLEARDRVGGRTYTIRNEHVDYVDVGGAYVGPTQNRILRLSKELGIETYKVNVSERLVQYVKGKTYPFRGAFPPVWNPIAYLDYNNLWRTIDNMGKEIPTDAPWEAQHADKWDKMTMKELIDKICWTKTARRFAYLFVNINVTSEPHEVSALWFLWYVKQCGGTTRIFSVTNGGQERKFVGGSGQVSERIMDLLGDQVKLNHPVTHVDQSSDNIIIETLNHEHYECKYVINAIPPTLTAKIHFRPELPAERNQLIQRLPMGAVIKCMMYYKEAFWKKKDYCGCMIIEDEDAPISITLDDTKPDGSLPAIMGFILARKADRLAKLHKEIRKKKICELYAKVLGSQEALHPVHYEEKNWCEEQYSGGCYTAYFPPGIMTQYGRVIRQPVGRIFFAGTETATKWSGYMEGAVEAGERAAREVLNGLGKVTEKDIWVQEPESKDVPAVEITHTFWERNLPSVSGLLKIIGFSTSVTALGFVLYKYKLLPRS
Procedure: Method to Determine the Ability of Compounds of Formula I to Inhibit Human Recombinant MAO-A
The selectivity of the compounds of this invention was tested by determining their ability to inhibit MAO-A activity in vitro, using recombinant human MAO-A (0.003 mg/mL; Sigma Aldrich). The assay was performed in a similar way as for human SSAO/VAP-1 (EXAMPLE 9) except, the substrate tyramine was used at 100 μM in place of benzylamine and the assay was run after an incubation time of 2 hours.

[4] = tested on: Myogenic cell cultures from both mdx mice and DMD patients; details: in vitro; cited from earlier work
[5] = tested on: mdx mice; details: 3-month old mdx mice, Vitiello L. et al. 2018; cited from earlier work

| SMILES | pIC50 [1] | pIC50 [2] | pIC50 [3] | susceptibility (sensitivity) to oxidative stress [4] | myofiber damage, oxidative stress and muscle function [5] |
| --- | --- | --- | --- | --- | --- |
| N#Cc1ccc(OC/C(=C/F)CN)cc1F [Compound 2, (E)-4-((2-(aminomethyl)-3-fluoroallyl)oxy)-2-fluorobenzonitrile] | > 8.00 | > 7.30 | < 4.52 |  |  |
| N#Cc1ccc(OC/C(=C/F)CN)cc1Br [Compound 3, (E)-4-((2-(aminomethyl)-3-fluoroallyl)oxy)-2-bromobenzonitrile] | > 8.00 | > 7.30 | 4.52 to 5.52 |  |  |
| N#Cc1ccc(OC/C(=C\F)CN)cc1 [Compound 6] | > 8.00 | > 7.30 | 5.52 to 6.52 |  |  |
| NC/C(=C\F)COc1ccc(C(F)(F)F)cc1 [Compound 11] | > 8.00 | > 7.30 | 4.52 to 5.52 |  |  |
| CS(=O)(=O)c1ccc(OC/C(=C/F)CN)cc1 [Compound 12] | > 8.00 | < 6.00 | < 4.52 |  |  |
| NC/C(=C\F)COc1ccc(OC(F)(F)F)cc1 [Compound 13] | > 8.00 | > 7.30 | > 6.52 |  |  |
| COc1ccc(OC/C(=C\F)CN)cc1 [Compound 14] | > 8.00 | > 7.30 | 5.52 to 6.52 |  |  |
| C[C@H](NCc1ccc(OCc2cccc(F)c2)cc1)C(N)=O [safinamide] |  |  |  | abrogated | reduced myofiber damage and oxidative stress, and improved muscle function |

More lines, main results first:

| pIC50 [1] | pIC50 [2] | pIC50 [3] | SMILES | susceptibility (sensitivity) to oxidative stress [4] | myofiber damage, oxidative stress and muscle function [5] |
| --- | --- | --- | --- | --- | --- |
| > 8.00 | > 7.30 | 4.52 to 5.52 | N#Cc1ccc(OC/C(=C/F)CN)c(F)c1 [Compound 4, (E)-4-((2-(aminomethyl)-3-fluoroallyl)oxy)-3-fluorobenzonitrile] |  |  |
| > 8.00 | > 7.30 | 4.52 to 5.52 | Cc1cc(OC/C(=C/F)CN)ccc1C#N [Compound 5, (E)-4-((2-(aminomethyl)-3-fluoroallyl)oxy)-2-methylbenzonitrile] |  |  |
| 6.30 to 8.00 | 6.30 to 7.30 | < 4.52 | COc1cc(OC/C(=C/F)CN)ccc1C#N [Compound 7] |  |  |
| < 6.00 | > 7.30 | > 6.52 | N#Cc1ccccc1OC/C(=C/F)CN [Compound 8] |  |  |
| > 8.00 | > 7.30 | 5.52 to 6.52 | N#Cc1cccc(OC/C(=C/F)CN)c1 [Compound 9] |  |  |
| 6.30 to 8.00 | > 7.30 | 5.52 to 6.52 | NC/C(=C\F)COc1ccccc1 [Compound 10] |  |  |
